Data from patent EP0542609B1, “3-sulfonylamino-2-(1H)-quinolinones and 7-aza derivatives as excitatory amino acids antagonists” (ADIR ET COMPAGNIE, priority 1991, dated 1993).

Columns and labels:
récepteur AMPA [1] = test: Membrane binding (3H-AMPA), rat cortex homogenate; details: binding to AMPA receptor, rat cortex membranes, 4°C, 30 min
Method: Il est réalisé à partir d'un homogénat de cortex de Rat. Le culot membranaire est classiquement préparé dans un tampon saccharose par centrifugations différentielles puis congelé jusqu'à utilisation. Après décongélation, 200 µl d'homogénat de membranes sont repris dans un tampon Tris HCl (30 mM), CaCl₂ (2,5 mM), pH 7,4 et incubés à 4°C pendant 30 minutes en présence de 25 µl de ³H-AMPA ou de ³H-Kainate et de 25 µl du produit à tester. La liaison non-spécifique est déterminée en présence de 10 µM de quisqualate (binding AMPA) ou de 10 µM d'acide kainique (binding kainate). Les membranes sont ensuite isolées par filtration. Après séchage des filtres, la radioactivité est mesurée par scintillation.

récepteur AMPA [2] = test: AMPA-induced currents in Xenopus oocytes injected with rat cerebral cortex mRNA (two-electrode voltage clamp); format: cell-based; details: for Ki: Xenopus oocyte, AMPA 30 µM, -60 mV, read-out: Courant AMPA Ki; for Oocyte de Xenopus Ki AMPA/Ki NMDA/Gly: ratio of Ki on AMPA current to Ki on NMDA/Gly current
Method: (§1) Des oocytes de Xenopus sont injectés de 50 ng d'ARNm poly (A^+) isolés de cortex cérébral de Rat et incubés 2 à 3 Jours à 18°C pour en permettre l'expression protéique. Les courants entrants induits par les AAE sont mesurés dans un milieu de composition : NaCl (82,5 mM), KCl (2,5 mM), CaCl₂ (1 mM), MgCl₂ (1 mM), NaH₂PO₄ (1 mM), HEPES (5 mM), pH 7,4 par la méthode du Voltage-clamp à 2 électrodes (potentiel = - 60 mV). Pour la mesure des courants induits par le NMDA et la glycine, MgCl₂ est absent du milieu et le CaCl₂ est amené à la concentration de 2 mM. Les agonistes AAE induisant les courants sont utilisés aux concentrations suivantes : kainate : 100 µM; AMPA : 30 µM; glycine/NMDA : 3/30 µM. Le produit étudié est appliqué 30 secondes avant et durant l'application de l'agoniste.

récepteur kainate = test: Kainate-induced currents in Xenopus oocytes injected with rat cerebral cortex mRNA (two-electrode voltage clamp); format: cell-based; details: Xenopus oocyte, kainate 100 µM, -60 mV; read-out: Courant Kainate IC50
Method: as §1

récepteurs AMPA/Kainate = test: Hippocampal EPSP induced by AMPA/Kainate receptor activation (rat hippocampal slices, Schäffer collaterals stimulation); format: cell-based; details: for IC50: rat hippocampal slices, CA1, in presence of Mg++ (blocks NMDA receptors), read-out: IC50 (inhibition des EPSP hippocampiques induits par l'activation des récepteurs AMPA/Kainate); for EPSP hippocampique IC50 AMPA-Kainate/IC50 NMDA-Glycine: ratio of IC50 on AMPA-Kainate EPSP to IC50 on NMDA-Glycine EPSP
Method: Des coupes transversales (500 µm) d'hippocampe de Rat sont placées dans un milieu de composition : NaCl (120 mM), KCl (5 mM), CaCl₂ (1 mM), MgSO₄ (1 mM), KH₂PO₄ (1,3 mM), NaHCO₃ (20 mM), HEPES (10 mM), glucose (10 mM), pH 7,35. Les "EPSP" sont enregistrés dans le champ dendritique de la région CA1 lors de stimulations toutes les 30 secondes de la stratum radiatum (50-100 µA, 20 µs). Les EPSP sont évalués au maximum de l'onde négative. Le produit étudié est appliqué durant 10 minutes.

Ki (récepteur AMPA [2]) | IC50 (récepteur kainate) | IC50 (récepteurs AMPA/Kainate) | EPSP hippocampique IC50 AMPA-Kainate/IC50 NMDA-Glycine (récepteurs AMPA/Kainate) | Compound | Ki (récepteur AMPA [1]) | Oocyte de Xenopus Ki AMPA/Ki NMDA/Gly (récepteur AMPA [2])
400 nM | 270 nM | 2900 nM | 0,03 | N#Cc1cc2c(cc1[N+](=O)[O-])=NC(=O)C(=O)N=2 [CNQX, 6-cyano-7-nitroquinoxaline-2,3-dione] | 70 nM | 0,19
60 nM | 60 nM | 1000 nM | << 0,001 | NS(=O)(=O)c1cccc2c3c(cc([N+](=O)[O-])c12)=NC(=O)C(=O)N=3 [NBQX, 6-nitro-7-sulfamoylbenzo[f]quinoxaline-2,3-dione] | – | << 0,001

Compound | Ki (récepteur AMPA [2]) | IC50 (récepteur kainate) | IC50 (récepteurs AMPA/Kainate) | EPSP hippocampique IC50 AMPA-Kainate/IC50 NMDA-Glycine (récepteurs AMPA/Kainate) | Ki (récepteur AMPA [1]) | Oocyte de Xenopus Ki AMPA/Ki NMDA/Gly (récepteur AMPA [2])
O=c1[nH]c2cc([N+](=O)[O-])ccc2cc1NS(=O)(=O)C(F)(F)F [Exemple 2, 7-Nitro-3-(trifluorométhylsulfonylamino)-2-(1H)-quinoléinone] | 370 nM | 500 nM | 10000 nM | 0,25 | 600 nM | 0,60
